What was measured:
Assay type in all cases: in vivo
[1] = system: Chilo suppressalis; experiment: Insecticidal activity against Chilo suppressalis, spraying of rice seedlings; details: 72 h, 3rd instar larvae, 3 days after administration; for mortality at 0.625 µg/mL: 0.625 mg/L; for mortality at 2.5 µg/mL: 2.5 mg/L; for mortality at 10 µg/mL: 10 mg/L
Experimental: (§1) The compound to be determined was dissolved in a mixed solvent of acetone/methanol (1:1), followed by dilution with water containing 0.1% (wt) Tween 80 to a desired concentration.
(§2) The activities of the respective compounds against Leucania separata, Plutella xylostella, and Chilo suppressalis were determined by Airbrush spraying method.
The determination method was as follows: 1) Preparation of rice seedlings: rice plants were cultivated in a plastic cup with a diameter of 4.5 cm and a height of 4 cm in a thermostatic chamber (temperature 26-28° C., relative humidity 60-80%, illumination 16 hL: 8 hD), and when the rice plants were developed to have 4-5 leaves, strong seedlings with identical growth vigour were selected for chemical treatment, and each treatment was replicated 3 times. 2) Preparation of insects to be tested: Chilo suppressalis, 3rd instar larvae, continuous lab rearing. 3) Inoculation of insects by spraying rice plant stems: The whole rice seedlings were sprayed evenly by using the spraying method, with 15 mL of the compound solution for each treatment. Firstly, the blank control was treated, and then the above procedure was replicated according to the order of test concentration from low to high. After rice seedlings were spray-treated, they were placed in the shade to dry, and the stems about 5 cm from the stem bases were cut off to feed the insects to be tested. Glass culture dishes with a diameter of 90 mm were prepared; each dish was padded with a filter paper at the bottom and added with water to keep moisture; about 5 rice stems were put into each dish and inoculated with 10 larvae, and each culture dish was then sealed with a non-woven and cultured in a thermostatic chamber. The number of residual live insects was examined 3 days after administration.

[2] = system: Tetranychus cinnabarinus; experiment: Acaricidal activity against Tetranychus cinnabarinus in greenhouse, bean seedling spraying; details: adult mites, 3 days (72 hours) after treatment; for mortality at 0.625 µg/mL: 0.625 mg/L; for mortality at 1.25 µg/mL: 1.25 mg/L; for mortality at 2.5 µg/mL: 2.5 mg/L; for mortality at 5 µg/mL: 5 mg/L
Experimental: The compounds of the invention were determined for the acaricidal activity in greenhouse. The determination method was as follows:
A bean seedling with two true leaves was taken for inoculating 30-40 adult mites of Tetranychus cinnabarinus. After examining the cardinal number, the whole seedling was treated by spraying with a hand-held sprayer, each treatment being replicated 3 times, and then placed in a standard observation room. The number of surviving mites was examined after 72 hours, and the mortality was calculated.

[3] = system: Plutella xylostella; experiment: Insecticidal activity against Plutella xylostella, Airbrush spraying of cabbage leaf discs; details: foliar, 72 h, 3rd instar larvae, 3 days after administration; for mortality at 5 µg/mL: 5 mg/L; for mortality at 10 µg/mL: 10 mg/L; for mortality at 2.5 µg/mL: 2.5 mg/L
Experimental: as §1, §2
(§3) The determination method was as follows: Cabbage leaves were made into leaf discs with a diameter of 2 cm by using a hole puncher; the pressure of Airbrush spraying was 10 psi (about 0.7 kg/cm^2); both sides of each leaf disc were sprayed with 0.5 mL of the compound solution to be tested. After drying in the shade, ten 3rd instar larvae were inoculated for each treatment, and each treatment was replicated 3 times. After treatment, they were cultured in an observation room at a temperature of 25° C. and a relative humidity of 60-70%, and the number of surviving insects was examined and the mortality was calculated three days after administration.

[4] = system: Leucania separata; experiment: Insecticidal activity against Leucania separata, Airbrush spraying of corn leaf segments; details: Mythimna separata, foliar, 72 h, 3rd instar larvae, 3 days after administration; for mortality at 1.25 µg/mL: 1.25 mg/L; for mortality at 2.5 µg/mL: 2.5 mg/L; for mortality at 5 µg/mL: 5 mg/L; for mortality at 10 µg/mL: 10 mg/L
Experimental: as §1, §2
as §3, with “Corn” for “Cabbage”, “cut” for “made”, “into” for “into leaf discs with a diameter of”, “long segments;” for “by using a hole puncher;”, “segment” for “disc”

Row | Compound | mortality at 0.625 µg/mL [1] [%] | mortality at 2.5 µg/mL [1] [%] | mortality at 10 µg/mL [1] [%] | mortality at 0.625 µg/mL [2] [%] | mortality at 1.25 µg/mL [2] [%] | mortality at 2.5 µg/mL [2] [%] | mortality at 5 µg/mL [2] [%] | mortality at 5 µg/mL [3] [%] | mortality at 10 µg/mL [3] [%] | mortality at 1.25 µg/mL [4] [%] | mortality at 2.5 µg/mL [4] [%] | mortality at 5 µg/mL [4] [%] | mortality at 10 µg/mL [4] [%] | mortality at 2.5 µg/mL [3] [%]
1 | CCN1OC[C@@H](N(C(C)=O)C(=O)c2ccc(C3=NOC(c4cc(Cl)cc(Cl)c4)(C(F)(F)F)C3)cc2C)C1=O (mixture of isomers) [Compound 109] | 80 | 100 | 100 | 16.7 | 70 | 100 | 100 | 70 | 100 | 26.7 | 63.3 | 83.3 | 100 | 
2 | CCN1OC[C@@H](N(C(=O)c2ccc(C3=NOC(c4cc(Cl)cc(Cl)c4)(C(F)(F)F)C3)cc2C)C(=O)C2CC2)C1=O (mixture of isomers) [Compound 112] | 96.7 | 100 | 100 | 96.7 | 100 | 100 | 100 | 70 | 100 | 80 | 96.7 | 100 | 100 | 
3 | CCN1OC[C@@H](N(C(=O)COC)C(=O)c2ccc(C3=NOC(c4cc(Cl)cc(Cl)c4)(C(F)(F)F)C3)cc2C)C1=O (mixture of isomers) [Compound 113] | 86.7 | 100 | 100 | 100 | 100 | 100 | 100 | 90 | 100 | 100 | 100 | 100 | 100 | 66.7
4 | CCOCC(=O)N(C(=O)c1ccc(C2=NOC(c3cc(Cl)cc(Cl)c3)(C(F)(F)F)C2)cc1C)[C@@H]1CON(CC)C1=O (mixture of isomers) [Compound 114] | 83.3 | 100 | 100 | 100 | 100 | 100 | 100 | 86.7 | 100 | 100 | 100 | 100 | 100 | 60
5 | CCN1OC[C@@H](N(C(=O)c2ccc(C3=NOC(c4cc(Cl)c(F)c(Cl)c4)(C(F)(F)F)C3)cc2C)C(=O)C2CC2)C1=O (mixture of isomers) [Compound 120] | 96.7 | 100 | 100 | 100 | 100 | 100 | 100 | 100 | 100 | 100 | 100 | 100 | 100 | 83.3
6 | CCN1OC[C@@H](N(C(=O)COC)C(=O)c2ccc(C3=NOC(c4cc(Cl)c(F)c(Cl)c4)(C(F)(F)F)C3)cc2C)C1=O (mixture of isomers) [Compound 121] | 90 | 100 | 100 | 100 | 100 | 100 | 100 | 100 | 100 | 100 | 100 | 100 | 100 | 86.7
7 | CCOCC(=O)N(C(=O)c1ccc(C2=NOC(c3cc(Cl)c(F)c(Cl)c3)(C(F)(F)F)C2)cc1C)[C@@H]1CON(CC)C1=O (mixture of isomers) [Compound 122] | 93.3 | 100 | 100 | 100 | 100 | 100 | 100 | 100 | 100 | 100 | 100 | 100 | 100 | 70
8 | CCN1OC[C@@H](N(C(=O)OC)C(=O)c2ccc(C3=NOC(c4cc(Cl)cc(Cl)c4)(C(F)(F)F)C3)cc2C)C1=O (stereo partly shown) [Comparative compound, reference compound] | 0 | 0 | 16.7 |  | 20 | 73.3 | 100 | 30 | 76.7 | 0 | 0 | 13.3 | 73.3 | 0
